In brackets after ≈: the same amount, converted by molar mass.
Experiments:
[1] = system: M. tuberculosis QcrB T313I; conditions: given in Figure 1A; cited from earlier work
[2] = system: M. tuberculosis QcrB M342T; conditions: given in Figure 1A; cited from earlier work
[3] = system: M. tuberculosis qcrCAB (A178T); conditions: given in Figure 1A; cited from earlier work
[4] = system: M. tuberculosis LP-0106898-RM1 (QcrB T313I); type: cell-based, Mycobacterium tuberculosis
[5] = system: M. tuberculosis LP-0497754-RM301, MmpL3 triple mutant (F255L, V646M, F644I); type: cell-based, Mycobacterium tuberculosis

Structure (SMILES) | MIC QcrB T313I [1] | MIC QcrB M342T [2] | IC50 [3] | MIC QcrBT313I [4] | MIC MmpL3 (F255L, V646M, F644I) [5]
FC(F)(F)c1ccc(CCNc2cc(-c3ccccn3)nc3ncnn23)cc1 [1 (TAP)] | > 20 µM | 10 µM (≈ 3.84 µg/mL) |  |  | 
CCc1nc2ccc(C)cc2n1CCCNc1ccccc1 [2 (FABA)] | 8.7 µM (≈ 2.55 µg/mL) | 4.1 µM (≈ 1.2 µg/mL) |  |  | 
CCc1nc(NCCCc2ccccc2)c2cc(C)sc2n1 [3 (CWHM-1023)] |  |  | > 0.5 µM |  | 
Cc1nc(NCCc2ccccc2)c2cc(I)ccc2n1 [9d] |  |  |  | 0.67 µM (≈ 0.261 µg/mL) | 0.89 µM (≈ 0.346 µg/mL)
COc1ccc(CCNc2nc(C)nc3ccc(I)cc23)cc1 [10d] |  |  |  | 1.2 µM (≈ 0.503 µg/mL) | 1.5 µM (≈ 0.629 µg/mL)
Cc1nc(NCCc2ccc(Cl)cc2)c2cc(I)ccc2n1 [11d] |  |  |  | 0.80 µM (≈ 0.339 µg/mL) | 1.0 µM (≈ 0.424 µg/mL)
Cc1nc(NCCc2ccc(OC(F)(F)F)cc2)c2cc(Br)ccc2n1 [13c] |  |  |  | 4.0 µM (≈ 1.7 µg/mL) | 5.4 µM (≈ 2.3 µg/mL)
Cc1nc(NCCc2ccc(OC(F)(F)F)cc2)c2cc(I)ccc2n1 [13d] |  |  |  | 5.2 µM (≈ 2.46 µg/mL) | 8.3 µM (≈ 3.93 µg/mL)
Cc1ccc(CCNc2nc(C)nc3ccc(I)cc23)cc1 [15d] |  |  |  | 0.70 µM (≈ 0.282 µg/mL) | 0.89 µM (≈ 0.359 µg/mL)
CCc1ccc(CCNc2nc(C)nc3ccc(Br)cc23)cc1 [16c] |  |  |  | 2.4 µM (≈ 0.889 µg/mL) | 3.4 µM (≈ 1.26 µg/mL)
CCc1ccc(CCNc2nc(C)nc3ccc(I)cc23)cc1 [16d] |  |  |  | 1.8 µM (≈ 0.751 µg/mL) | 2.3 µM (≈ 0.96 µg/mL)
Cc1nc(NCCc2ccc3ccccc3c2)c2cc(Br)ccc2n1 [17c] |  |  |  | 2.2 µM (≈ 0.863 µg/mL) | 2.6 µM (≈ 1.02 µg/mL)
Cc1nc(NCCc2ccc3ccccc3c2)c2cc(I)ccc2n1 [17d] |  |  |  | 1.2 µM (≈ 0.527 µg/mL) | 1.4 µM (≈ 0.615 µg/mL)
Cc1nc(NCCCc2ccccc2)c2ccccc2n1 [18a] |  |  |  | 1.0 µM (≈ 0.277 µg/mL) | 1.2 µM (≈ 0.333 µg/mL)
COc1ccc2nc(C)nc(NCCCc3ccccc3)c2c1 [18b] |  |  |  | 1.3 µM (≈ 0.4 µg/mL) | 1.5 µM (≈ 0.461 µg/mL)
Cc1nc(NCCCc2ccccc2)c2cc(Br)ccc2n1 [18c] |  |  |  | <0.19 µM | < 0.19 µM
Cc1nc(NCCCc2ccccc2)c2cc(I)ccc2n1 [18d] |  |  |  | 0.48 µM (≈ 0.194 µg/mL) | 0.64 µM (≈ 0.258 µg/mL)
c1ccc(CCCNc2ncnc3ccccc23)cc1 [18e] |  |  |  | 29.0 µM (≈ 7.64 µg/mL) | 39.0 µM (≈ 10.3 µg/mL)
CO[C@H]1/C=C/O[C@@]2(C)Oc3c(C)c(O)c4c(O)c(c(/C=N/N5CCN(C)CC5)c(O)c4c3C2=O)NC(=O)/C(C)=C\C=C\[C@H](C)[C@H](O)[C@@H](C)[C@@H](O)[C@@H](C)[C@H](OC(C)=O)[C@@H]1C [20 (RIF), rifampicin, reference compound] |  |  |  | 0.010 µM (≈ 0.00823 µg/mL) | 0.030 µM (≈ 0.0247 µg/mL)
